Experimental data: ChEMBL document CHEMBL4673175, “An epigrammatic status of the azole-based antimalarial drugs” (RSC Med Chem, 2020)

Legend:
Plasmodium falciparum [1] = test: Antimalarial activity against chloroquine-resistant ring-stage Plasmodium falciparum W2 infected in human erythrocytes by HRP2 assay; type: functional, organism-based
[2] = target: T1, Enoyl-acyl-carrier protein reductase (Plasmodium falciparum, UniProt Q965D5); test: Inhibition of Plasmodium falciparum enoyl-ACP reductase using crotonoyl-CoA as substrate by UV-Vis spectrophotometric method
T1 sequence (Q965D5 whole entry): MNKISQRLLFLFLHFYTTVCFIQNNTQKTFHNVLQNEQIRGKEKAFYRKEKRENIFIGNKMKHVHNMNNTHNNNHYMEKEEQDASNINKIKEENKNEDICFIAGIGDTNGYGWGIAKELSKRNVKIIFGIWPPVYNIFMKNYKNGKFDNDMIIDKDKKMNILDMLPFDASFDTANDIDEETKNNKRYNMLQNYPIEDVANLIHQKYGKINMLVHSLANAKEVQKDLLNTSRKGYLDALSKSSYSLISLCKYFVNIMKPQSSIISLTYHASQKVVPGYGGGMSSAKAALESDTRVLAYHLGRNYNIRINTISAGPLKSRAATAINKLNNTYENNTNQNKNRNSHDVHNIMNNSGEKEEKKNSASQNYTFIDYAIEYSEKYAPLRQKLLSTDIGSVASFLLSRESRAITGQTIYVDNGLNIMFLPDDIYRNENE

Plasmodium falciparum [3] = test: Antiplasmodial activity against ring stage Plasmodium falciparum incubated for 72 hrs by SYBR Green I based assay; type: functional, organism-based
Plasmodium falciparum [4] = test: Antiplasmodial activity against chloroquine sensitive Plasmodium falciparum D10; type: functional, organism-based
Plasmodium falciparum [5] = test: Antiplasmodial activity against chloroquine resistant Plasmodium falciparum Dd2; type: functional, organism-based
Plasmodium falciparum [6] = test: Antimalarial activity against chloroquine resistant Plasmodium falciparum incubated for 24 to 48 hrs by Giemsa staining based assay; type: functional, organism-based
Plasmodium falciparum [7] = test: Antimalarial activity against chloroquine sensitive Plasmodium falciparum incubated for 24 to 48 hrs by Giemsa staining based assay; type: functional, organism-based
Plasmodium falciparum [8] = test: Antimalarial activity against chloroquine resistant Plasmodium falciparum RKL9 assessed as reduction in schizont maturation incubated for 24 hrs by Giemsa staining based assay; type: functional, organism-based; conditions: RKL9, 24 h
Plasmodium falciparum [9] = test: Antimalarial activity against Plasmodium falciparum assessed as reduction in [3H]-hypoxanthine incorporation into DNA incubated for 36 hrs by beta counter method; type: functional, organism-based
Plasmodium falciparum [10] = test: Antimalarial activity against chloroquine sensitive Plasmodium falciparum 3D7 incubated for 72 hrs by JSB1/JSB2 staining based assay; type: functional, organism-based; conditions: 3D7, 72 h
Plasmodium falciparum [11] = test: Antimalarial activity against chloroquine resistant Plasmodium falciparum; type: functional, organism-based
Plasmodium falciparum [12] = test: Antimalarial activity against chloroquine sensitive Plasmodium falciparum; type: functional, organism-based
Plasmodium falciparum [13] = test: Antiplasmodial activity against Plasmodium falciparum IPC5202 by whole-cell SYBR Green I based assay; type: functional, organism-based
Plasmodium falciparum [14] = test: Antiplasmodial activity against chloroquine-resistant/mefloquine resistant early ring stage Plasmodium falciparum Dd2 by whole-cell SYBR Green I based assay; type: functional, organism-based
Plasmodium falciparum [15] = test: Antiplasmodial activity against chloroquine-sensitive/mefloquine resistant early ring stage Plasmodium falciparum 3D7 by whole-cell SYBR Green I based assay; type: functional, organism-based
Plasmodium falciparum [16] = test: Antiplasmodial activity against Plasmodium falciparum IPC4912 by whole-cell SYBR Green I based assay; type: functional, organism-based
[17] = tested on: Falcipain-2 (Plasmodium falciparum); test: Inhibition of Plasmodium falciparum falcipain-2 in enzyme assay
Plasmodium berghei [18] = test: Antimalarial activity against Plasmodium berghei ANKA infected in Balb-C mouse assessed as parasitemia at 10 mg/kg, ip administered once daily for 4 consecutive days by Giemsa staining based assay relative to control; type: functional; conditions: time 4 day
Hemozoin = test: Inhibition of beta-hematin formation at 5 to 100 mM incubated for 48 hrs; conditions: dose 5-100 mM
Plasmodium berghei [19] = test: Antimalarial activity against Plasmodium berghei ANKA infected in Balb-C mouse assessed as mouse survival time at 10 mg/kg, ip administered once per day for 4 consecutive days (reference value: 8.20 +/- 0.20 days); type: functional; conditions: time 4 day
Plasmodium berghei [20] = test: Antimalarial activity against Plasmodium berghei ANKA infected in Swiss albino mouse assessed as parasitemia suppression at 50 micromol/kg, po administered for 4 days and measured at 24 hrs post-last dose by Giemsa staining based microscopic method relative to control; type: functional; conditions: dose 50 µmol/kg; time 4 day
Plasmodium falciparum [21] = test: Antimalarial activity against chloroquine sensitive Plasmodium falciparum 3D7 assessed as reduction in schizont maturation incubated for 24 hrs by Giemsa staining based assay; type: functional, organism-based; conditions: 3D7, 24 h

Work on `Clc1ccc2c(-n3cc(C4CC4)nn3)ccnc2c1` yielded an IC50 (Plasmodium falciparum [1]) of 1.4 µM.
`Cc1ccc(-c2nn(-c3nccc(C(F)(F)F)n3)cc2C=O)cc1` gave an IC50 [2] of 30 µM.
`CCOC(=O)c1sc(N/N=C(\C)c2ccccn2)nc1C` was tested, and the IC50 (Plasmodium falciparum [3]) was 0.725 µM.
Molecule `Clc1ccc2c(-n3cc(-c4ccccc4)nn3)ccnc2c1` has an IC50 (Plasmodium falciparum [1]) of 1.4 µM.
With `Cc1ccc(-c2cn(CC3CN3Cc3ccccc3)nn2)cc1` (stereo unspecified) the IC50 (Plasmodium falciparum [4]) was ≤ 25 µM and the IC50 (Plasmodium falciparum [5]) was ≤ 25 µM.
`CC(C)n1cncc1CC(N)C(=O)O` (stereo unspecified) was tested, and the IC50 (Plasmodium falciparum [6]) was 10 µM and the IC50 (Plasmodium falciparum [7]) was 10 µM.
`NCCc1cncn1Cc1ccccc1` gave an IC50 (Plasmodium falciparum [6]) of 10 µM and an IC50 (Plasmodium falciparum [7]) of 10 µM.
`Clc1ccc2c(-n3cc(OC4CCCCO4)nn3)ccnc2c1` (stereo unspecified) showed an IC50 (Plasmodium falciparum [1]) of 1.4 µM.
Work on `O=[N+]([O-])c1ccc(N/N=C/c2cn(-c3ccc(Cl)cc3)nc2-c2ccccc2)c([N+](=O)[O-])c1` yielded an IC50 (Plasmodium falciparum [8]) of 0.033 µM.
Molecule `N#Cc1c(Nc2ccccc2)n[nH]c1N` has an IC50 (Plasmodium falciparum [9]) of 0.14 µM.
`Cc1ccc(-n2cc(C3CC(c4ccc(N)cc4)=NN3C(N)=S)c(-c3ccccc3)n2)cc1` (stereo unspecified) was tested, and the IC50 (Plasmodium falciparum [10]) was < 5 µM.
`CC(=O)N1CCN(c2ccc(OCC3COC(Cn4ccnc4)(c4ccc(Cl)cc4Cl)O3)cc2)CC1` (stereo unspecified) [KETOCONAZOLE] was tested, and the IC50 (Plasmodium falciparum [11]) was 0.2 µM and the IC50 (Plasmodium falciparum [12]) was 0.2 µM.
For `CCNCC(Cn1cc(-c2ccccc2)nn1)NCc1ccccc1` (stereo unspecified), the IC50 (Plasmodium falciparum [4]) was ≤ 25 µM.
Work on `c1ccc(-n2nnnc2OCC2CCC3(CC2)OOC2(O3)C3CC4CC(C3)CC2C4)cc1` (stereo unspecified) yielded an IC50 (Plasmodium falciparum [13]) of 0.0003 µM, an IC50 (Plasmodium falciparum [14]) of 0.0003 µM and an IC50 (Plasmodium falciparum [15]) of 0.0003 µM. For the same molecule, the IC50 (Plasmodium falciparum [16]) was 0.0003 µM.
For `COc1ccc(C2=NN(C(N)=S)C(c3cn(-c4ccc(OC)cc4)nc3-c3ccccc3)C2)cc1` (stereo unspecified), the IC50 (Plasmodium falciparum [10]) was < 5 µM.
For `COc1ccccc1Nc1n[nH]c(N)c1C#N`, the IC50 (Plasmodium falciparum [9]) was 0.14 µM.
Molecule `Cc1ccc(-n2cc(/C=N/Nc3ccncc3)c(-c3ccccc3)n2)cc1` has an IC50 (Plasmodium falciparum [8]) of 0.033 µM.
`COc1cccc(/C=C(/C#N)c2nc3ccccc3[nH]2)c1` gave an IC50 [17] of 0.69 µM.
`COc1cc(/C=C(/C#N)c2nc3ccccc3[nH]2)cc(OC)c1` was tested, and the IC50 [17] was 0.69 µM.
Work on `COC(=O)c1c(Nc2cccc(OC)c2)n[nH]c1N` yielded an IC50 (Plasmodium falciparum [9]) of 0.14 µM.
`Clc1ccc(COC(Cn2ccnc2)c2ccc(Cl)cc2Cl)c(Cl)c1` (stereo unspecified) [MICONAZOLE] was tested, and the IC50 (Plasmodium falciparum [11]) was 0.2 µM and the IC50 (Plasmodium falciparum [12]) was 0.2 µM.
`COc1ccc(CN2CC2Cn2cc(-c3ccccc3)nn2)cc1` (stereo unspecified) was tested, and the IC50 (Plasmodium falciparum [4]) was ≤ 25 µM.
In the case of `CC(C)n1c(CC(N)C(=O)O)cnc1Cc1ccccc1` (stereo unspecified), the IC50 (Plasmodium falciparum [6]) is reported as 10 µM and the IC50 (Plasmodium falciparum [7]) is reported as 10 µM.
In the case of `CNCC(Cn1cc(-c2ccccc2)nn1)NCc1ccccc1Cl` (stereo unspecified), the IC50 (Plasmodium falciparum [4]) is reported as ≤ 25 µM and the IC50 (Plasmodium falciparum [5]) is reported as ≤ 25 µM.
`CC(C)n1cncc1CCN` gave an IC50 (Plasmodium falciparum [6]) of 10 µM and an IC50 (Plasmodium falciparum [7]) of 10 µM.
For `CCOC(=O)c1cn(-c2ccnc3cc(Cl)ccc23)nn1`, the IC50 (Plasmodium falciparum [1]) was 1.4 µM.
In the case of `Cc1ccc(NC(=O)c2ccc3[nH]c(-c4ccc([N+](=O)[O-])o4)nc3c2)c(C)c1`, the Activity (Plasmodium berghei [18]) is reported as 3.05%, the inhibition (Hemozoin) is reported as < 98% and the Time (Plasmodium berghei [19]) is reported as 20.2 days.
Molecule `O=Cc1cn(-c2ccc(Cl)cc2)nc1-c1ccccc1` has an Activity (Plasmodium berghei [20]) of 83% and an IC50 (Plasmodium falciparum [8]) of 0.033 µM.
`O=[N+]([O-])c1ccc(-c2cc(C(F)(F)F)nn2-c2ccccc2)cc1` showed an IC50 [2] of 50 µM.
`COc1cccc(Nc2n[nH]c(N)c2C#N)c1` was tested, and the IC50 (Plasmodium falciparum [9]) was 0.14 µM.
`C[C@@H]1CC[C@H]2[C@@H](C)C(=O)O[C@@H]3O[C@@]4(C)CC[C@@H]1[C@]32OO4` [ARTEMISININ] showed an IC50 (Plasmodium falciparum [21]) of 0.006 µM.
`Cc1ccc(-n2cc(C(=O)O)c(-c3ccccc3)n2)cc1` gave an Activity (Plasmodium berghei [20]) of 83% and an IC50 (Plasmodium falciparum [8]) of 0.033 µM.
In the case of `NC(=S)N1N=C(c2ccc(N)cc2)CC1c1cn(-c2ccc(Cl)cc2)nc1-c1ccccc1` (stereo unspecified), the IC50 (Plasmodium falciparum [10]) is reported as < 5 µM.
`Cc1ccc(-n2cc(C=O)c(-c3ccccc3)n2)cc1` gave an Activity (Plasmodium berghei [20]) of 83% and an IC50 (Plasmodium falciparum [8]) of 0.033 µM.
`COc1ccc(-n2cc(C3CC(c4ccc(N)cc4)=NN3C(N)=S)c(-c3ccccc3)n2)cc1` (stereo unspecified) was tested, and the IC50 (Plasmodium falciparum [10]) was < 5 µM.
`Cn1nnnc1NCC1CCC2(CC1)OOC1(O2)C2CC3CC(C2)CC1C3` (stereo unspecified) was tested, and the IC50 (Plasmodium falciparum [13]) was 0.0003 µM, the IC50 (Plasmodium falciparum [14]) was 0.0003 µM and the IC50 (Plasmodium falciparum [15]) was 0.0003 µM. For the same molecule, the IC50 (Plasmodium falciparum [16]) was 0.0003 µM.
Molecule `CC(C)c1nc(CCN)c[nH]1` has an IC50 (Plasmodium falciparum [6]) of 10 µM and an IC50 (Plasmodium falciparum [7]) of 10 µM.
Work on `O=C(O)c1cn(-c2ccc(Cl)cc2)nc1-c1ccccc1` yielded an Activity (Plasmodium berghei [20]) of 83% and an IC50 (Plasmodium falciparum [8]) of 0.033 µM.
`COc1ccc(Nc2n[nH]c(N)c2C#N)cc1` gave an IC50 (Plasmodium falciparum [9]) of 0.14 µM.
In the case of `COc1ccc(/C=C(\C#N)c2nc3ccccc3[nH]2)cc1O`, the IC50 [17] is reported as 0.69 µM.
Molecule `FC(F)c1cn(-c2ccnc3cc(Cl)ccc23)nn1` has an IC50 (Plasmodium falciparum [1]) of 1.4 µM.
For `CCOC(=O)C1=CNC(C)=C(C(=O)OCC)C1c1ccc(OCC(=O)N/N=C/c2cn(-c3ccccc3)nc2-c2ccccc2)cc1` (stereo unspecified), the IC50 (Plasmodium falciparum [21]) was 0.0044 µM.
`Cn1nnnc1NCC1CCC2(CC1)OOC1(OO2)C2CC3CC(C2)CC1C3` (stereo unspecified) was tested, and the IC50 (Plasmodium falciparum [13]) was 0.0003 µM, the IC50 (Plasmodium falciparum [14]) was 0.0003 µM and the IC50 (Plasmodium falciparum [15]) was 0.0003 µM. The IC50 (Plasmodium falciparum [16]) was 0.0003 µM.
Molecule `CC(C)(C)c1nc(CCN)c[nH]1` has an IC50 (Plasmodium falciparum [6]) of 10 µM and an IC50 (Plasmodium falciparum [7]) of 10 µM.
In the case of `CC(C)c1nc(CC(N)C(=O)O)c[nH]1` (stereo unspecified), the IC50 (Plasmodium falciparum [6]) is reported as 10 µM and the IC50 (Plasmodium falciparum [7]) is reported as 10 µM.
In the case of `Clc1ccccc1CN1CC1Cn1cc(-c2ccccc2)nn1` (stereo unspecified), the IC50 (Plasmodium falciparum [5]) is reported as ≤ 25 µM.
With `CCNCC(Cn1cc(-c2ccccc2)nn1)NCc1ccc(Cl)cc1` (stereo unspecified) the IC50 (Plasmodium falciparum [4]) was ≤ 25 µM.
In the case of `CC(C)(C)c1nc(CC(N)C(=O)O)c[nH]1` (stereo unspecified), the IC50 (Plasmodium falciparum [6]) is reported as 10 µM and the IC50 (Plasmodium falciparum [7]) is reported as 10 µM.
`COC(=O)c1c(Nc2ccccc2)n[nH]c1N` was tested, and the IC50 (Plasmodium falciparum [9]) was 0.14 µM.
Work on `CC(C)(C)n1c(CC(N)C(=O)O)cnc1Cc1ccccc1` (stereo unspecified) yielded an IC50 (Plasmodium falciparum [6]) of 10 µM and an IC50 (Plasmodium falciparum [7]) of 10 µM.
For `NC(=S)N1N=C(c2ccc(N)cc2)CC1c1cn(-c2ccccc2)nc1-c1ccccc1` (stereo unspecified), the IC50 (Plasmodium falciparum [10]) was < 5 µM.
`Clc1ccccc1C(c1ccccc1)(c1ccccc1)n1ccnc1` [CLOTRIMAZOLE] was tested, and the IC50 (Plasmodium falciparum [11]) was 0.2 µM and the IC50 (Plasmodium falciparum [12]) was 0.2 µM.
